These results are taken from patent US9920061B2, “Imidazo[1,5-A]pyrimidinyl carboxamide compounds and their use in the treatment of medical disorders” (Lysosomal Therapeutics Inc., priority 2016, dated 2018).

Converted amounts (≈) assume the structure as drawn.

A short description of series [1]: Compound solubility in water. The series is classed as physicochemical. Conditions: in water.
For series [2], the target named is T1, glucocerebrosidase (Gcase) (Homo sapiens, UniProt P04062).
T1 sequence (P04062 40-536): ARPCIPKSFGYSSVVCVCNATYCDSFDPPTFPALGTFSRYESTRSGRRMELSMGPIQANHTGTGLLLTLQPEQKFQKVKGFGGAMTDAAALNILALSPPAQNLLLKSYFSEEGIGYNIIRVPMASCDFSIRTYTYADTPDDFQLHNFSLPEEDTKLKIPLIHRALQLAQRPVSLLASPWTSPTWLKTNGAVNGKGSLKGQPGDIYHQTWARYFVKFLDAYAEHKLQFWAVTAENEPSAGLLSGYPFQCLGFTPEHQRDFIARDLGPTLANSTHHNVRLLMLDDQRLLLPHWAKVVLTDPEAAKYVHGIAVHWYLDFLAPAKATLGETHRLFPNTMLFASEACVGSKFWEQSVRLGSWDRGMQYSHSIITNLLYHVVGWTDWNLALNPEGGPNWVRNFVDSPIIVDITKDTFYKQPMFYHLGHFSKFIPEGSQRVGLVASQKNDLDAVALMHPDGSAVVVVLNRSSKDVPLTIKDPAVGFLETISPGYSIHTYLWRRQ
In words: Glucocerebrosidase (Gcase) activation assay, 4-methylumbelliferyl-beta-D-glucopyranoside substrate, with saposin C. It is filed as biochemical. Conditions: for activation at 0.1 µM: test compound at 0.1 μM, read-out: Percent Gcase Activation, 0.1 μM Test Compound; for activation at 1 µM: test compound at 1.0 μM, read-out: Percent Gcase Activation, 1 μM Test Compound. An outline of the steps: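 Compounds tested at 1.0 and 0.1 μM, then in 8-point 3-fold curves, were pre-incubated 30 min at room temperature with 10 nM GCase plus 100 nM saposin C in PS/triton micelles, pH 4.7. Reaction with substrate (2 mM in micelles before mixing) ran 15 min; stopped at pH 12.5, read at ex 365/em 440 nm.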

As for `Cc1cc(-c2ccccc2C#N)nc2c(C(=O)NC(C)(C)C)ncn12` [IV-109], the solubility in series [1] amounted to 2.5 µg/mL (≈ 7.5 µM). Besides, in series [2], the activation at 0.1 µM is below 10% and the activation at 1 µM is 30 to 60%.

On to `Cc1cc(-c2cc(F)cc(C#N)c2)nc2c(C(=O)NC(C3CC3)C(F)(F)F)ncn12` (stereo not drawn) [IV-110], for which, in series [1], the concentration in solution (solubility) came to 1.2 µg/mL (≈ 2.88 µM). In addition, in series [2], the activation at 0.1 µM was above 20% and the activation at 1 µM is above 60%.

In series [1], `Cc1cc(-c2cc(F)cc(C#N)c2)nc2c(C(=O)NC(C)(C)C)ncn12` [IV-111] displayed a solubility of 0.9 µg/mL (≈ 2.56 µM). In series [2], the activation at 0.1 µM is 10 to 20% and the activation at 1 µM is above 60%.

`Cc1cc(-c2cccc(C(N)=O)c2)nc2c(C(=O)NC(C3CC3)C(F)(F)F)ncn12` (stereo not drawn) [IV-112] came in with a solubility in series [1] of 1.1 µg/mL (≈ 2.64 µM). In addition, in series [2], the activation at 0.1 µM was 10 to 20% and the activation at 1 µM was above 60%.

With `Cc1cc(N2CCCC(F)(F)C2)nc2c(C(=O)NC(C3CC3)C(F)(F)F)ncn12` (stereo not drawn) [IV-113], the concentration in solution in series [1] (solubility) came to 17.2 µg/mL (≈ 41.2 µM). Besides, in series [2], the activation at 0.1 µM was above 20% and the activation at 1 µM was above 60%.

In turn, `Cc1cc(Oc2cccnc2)nc2c(C(=O)N[C@@H](C)C3CC3)ncn12` [IV-114] showed a solubility in series [1] of 32.8 µg/mL (≈ 97.2 µM). In series [2], the activation at 0.1 µM was below 10% and the activation at 1 µM was below 30%.

Consider `Cc1cc(Oc2ccncc2)nc2c(C(=O)N[C@@H](C)C3CC3)ncn12` [IV-115], for which the solubility in series [1] was 29.6 µg/mL (≈ 87.7 µM). Moreover, in series [2], the activation at 0.1 µM is below 10% and the activation at 1 µM was below 30%.

For the compound `Cc1cc(-c2cccc(-c3ncccn3)c2)nc2c(C(=O)NC(C3CC3)C(F)(F)F)ncn12` (stereo not drawn) [IV- 61], in series [1], the concentration in solution (solubility) was 1.1 µg/mL (≈ 2.43 µM). In series [2], the activation at 0.1 µM is above 20% and the activation at 1 µM was above 60%.
